Earlier results in patent US9539278B2, “Preparation for use of aspartate and vitamin B12 or biotin for regulating ketone bodies” (N.V. Nutricia, priority 2004, dated 2017).

System: blood ketone body concentrations
Details: rats, after consumption of high doses of alanine

C[C@H](N)C(=O)O [alanine]
blood levels of ketone bodies: decreased
